Assay type in all cases: biochemical
The target in one assay is T1, ASH1L/KMT2H (Homo sapiens, UniProt Q9NR48).
T1 construct: the human recombinant ASH1L (residues 2046–2330, with an N-terminal His-tag); His (N); purchased Reaction Biology Corporation
Briefly: HotSpot KMT activity assay, ASH1L. As to conditions: read-out: % ASH1L residual activity. From the text:
(§1) ; MW = 35.4 kDa; Genbank Accession # NM_018489), or the human recombinant EZH2-containing five-member polycomb repressive complex 2 (including EZH2 residues 2–746, AEBP2 2–517, EED 2–441, RbAp48 2–425, SUZ12 2–739; all full-length; with N-terminal Flag-tag on EED and N-terminal His-tag on all others; MW = 333.8 kDa; Genbank Accession # NM_001203247, NM_001114176, NM_003797, NM_005610, NM_015355), or the human recombinant G9a (residues 913–1193, C-terminus; with an N-terminal His-tag; MW = 34.6 kDa; Genbank Accession # NM_006709.3), or the human recombinant MLL1 complex (including MLL1 residues 3745–3969, C-terminus, WDR5 22–334, C-terminus, RbBP5 1–538, C-terminus, ASH2L 2–534, C-terminus, DPY-30 1–99, C-terminus; N-terminal His-tag on all subunits; MW = 212.0 kDa; Genbank Accession # NM_005933, NM_017588, NM_005057, NM_001105214, NM_0325742), or the human recombinant SET7/9 (residues 2–366, C-terminus; with a N-terminal GST-tag and a C-terminal His-tag; MW = 68.5 kDa; Genbank Accession # NM_030648), or the human recombinant SMYD3 (residues 2–428, C-terminus; C-terminal His-tag; MW = 50.1 kDa; Genbank Accession # NM_001167740), or the human recombinant SUV39H2 (residues 46–410, C-terminus; N-terminal fusion protein with a C-terminal His-tag; MW = 98.8 kDa; GenBank Accession No. NM_001193424), or the human recombinant DOT1L (residues 1–416; N-terminal GST-tag; MW = 80.0 kDa; Genbank Accession # NM_032482) was added to a solution of the proper substrate (oligo nucleosomes for ASH1L, MLL1 complex, and DOT1L, final concentration 0.05 mg/mL; core histone for EZH2 complex and SET7/9, final concentration 0.05 mg/mL; histone H3 for SUV39H2, final concentration 5 μM; histone H3 1–21 for G9a, final concentration 2.5 μM) in freshly prepared reaction buffer (50 mM Tris-HCl (pH 8.5), 5 mM MgCl2, 50 mM NaCl, 1 mM DTT, 1 mM PMSF, 1% DMSO) and gently mixed. […] After incubation for 60 min at 30 °C, the reaction mixture was delivered to filter paper for detection (as assessed by scintillation). […] Values obtained for each compound are mean ± SD determined for two separate experiments.

In the next assay the target is T2, SMYD3/KMT3E (Homo sapiens, UniProt Q9H7B4).
T2 construct: the human recombinant SMYD3 (residues 2–428, C-terminus); C-terminal His-tag; His (C); purchased Reaction Biology Corporation
T2 sequence (Q9H7B4 2-428): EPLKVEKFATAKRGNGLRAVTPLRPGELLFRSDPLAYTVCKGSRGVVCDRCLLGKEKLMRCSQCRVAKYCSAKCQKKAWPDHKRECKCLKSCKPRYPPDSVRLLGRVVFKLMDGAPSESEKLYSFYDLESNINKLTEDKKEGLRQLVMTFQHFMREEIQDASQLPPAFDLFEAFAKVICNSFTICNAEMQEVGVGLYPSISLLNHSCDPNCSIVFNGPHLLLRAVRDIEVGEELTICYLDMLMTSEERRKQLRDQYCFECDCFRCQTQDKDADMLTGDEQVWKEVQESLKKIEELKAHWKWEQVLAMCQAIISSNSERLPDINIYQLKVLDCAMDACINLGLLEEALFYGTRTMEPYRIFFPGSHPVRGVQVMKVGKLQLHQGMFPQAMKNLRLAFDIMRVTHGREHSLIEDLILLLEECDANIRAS
The assay is described as follows: HotSpot KMT activity assay, SMYD3. As to conditions: read-out: % SMYD3 residual activity.
Text: as §1

The next assay has as its target T3, SUV39H2/KMT1B (Homo sapiens, UniProt Q9H5I1).
T3 construct: the human recombinant SUV39H2 (residues 46–410, C-terminus); His (C); purchased Reaction Biology Corporation
The assay is described as follows: HotSpot KMT activity assay, SUV39H2. As to conditions: read-out: % SUV39H2 residual activity.
Text: as §1

Each structure is given as a SMILES string.

T3 sequence (Q9H5I1 46-410): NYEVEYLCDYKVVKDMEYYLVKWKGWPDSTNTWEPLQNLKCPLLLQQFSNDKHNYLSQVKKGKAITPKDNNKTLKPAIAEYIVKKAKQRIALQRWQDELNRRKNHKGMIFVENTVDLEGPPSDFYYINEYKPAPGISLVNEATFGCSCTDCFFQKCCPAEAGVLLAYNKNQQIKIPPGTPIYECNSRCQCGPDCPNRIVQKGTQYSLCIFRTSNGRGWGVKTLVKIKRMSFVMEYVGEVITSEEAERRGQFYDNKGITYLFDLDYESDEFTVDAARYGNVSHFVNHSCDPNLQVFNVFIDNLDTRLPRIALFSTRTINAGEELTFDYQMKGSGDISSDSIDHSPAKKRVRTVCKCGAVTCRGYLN

As to `COC(=O)c1cc(O)c2cc(NC(=O)NCCCNC(=N)NC[C@H]3O[C@@H](n4cnc5c(N)ncnc54)[C@H](O)[C@@H]3O)cc(C(F)(F)F)c2c1` [1j, Methyl 6-(3-(3-(3-(((2R,3S,4R,5R)-5-(6-Amino-9H-purin-9-yl)-3,4-dihydroxytetrahydrofuran-2-yl)methyl)guanidino)propyl)ureido)-4-hydroxy-8-(trifluoromethyl)-2-naphthoate], the remaining activity at 10 µM on ASH1L/KMT2H (10 μM) turned out to be 95.4 ± 1.49%; on SMYD3/KMT3E (10 μM) it was 99.1 ± 1.41%; at SUV39H2/KMT1B (10 μM), 89.7 ± 1.08%. The values for the remaining activity at 100 µM on ASH1L/KMT2H (100 μM), at SMYD3/KMT3E (100 μM) and at SUV39H2/KMT1B (100 μM) were 109 ± 3.8%, 74.2 ± 1.8% and 83.76 ± 0.22%, respectively.
